Data on 56 compounds can be found in patent US20210139484A1, “DIHYDROISOQUINOLINE-2(1H)-CARBOXAMIDE AND RELATED COMPOUNDS AND THEIR USE IN TREATING MEDICAL CONDITIONS” (GOSSAMER BIO SERVICES, INC., priority 2018, published 2021).

The structures appear in SMILES notation.

For orientation: IC50 means the concentration that inhibits the measured activity by half. Higher therefore signals weaker potency.

For the assay, the target named is T1, human HPK1 protein (Homo sapiens, UniProt Q92918).
T1 construct: recombinant human HPK1 protein (a.a. 1-346) was expressed in Sf9 insect cells; GST (N); purchased Signalchem M23-11G; host or cells: Sf9 insect cells (baculovirus)
T1 sequence (Q92918 1-346): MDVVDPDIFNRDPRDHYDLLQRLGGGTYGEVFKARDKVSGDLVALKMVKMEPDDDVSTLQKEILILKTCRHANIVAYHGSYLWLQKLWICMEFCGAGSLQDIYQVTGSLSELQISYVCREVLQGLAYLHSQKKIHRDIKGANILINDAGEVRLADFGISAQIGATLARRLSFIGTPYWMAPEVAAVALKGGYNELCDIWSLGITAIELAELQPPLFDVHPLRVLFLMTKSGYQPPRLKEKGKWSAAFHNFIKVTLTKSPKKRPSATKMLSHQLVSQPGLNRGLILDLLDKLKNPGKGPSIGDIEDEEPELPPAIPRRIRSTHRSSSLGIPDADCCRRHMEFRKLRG
Briefly: Human HPK1 protein TR-FRET assay. In kind it is biochemical. As to conditions: 1 mM ATP, Table 19. The procedure, abridged:
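Read-out was TR-FRET using Eu-labeled anti-phospho-CREB (Ser133) antibody, with the 665/615 nm signal ratio normalised to DMSO-only wells and fitted by a 4-parameter logistic model for IC50. Reactions held 10 nM Sf9-expressed GST-HPK1 (a.a. 1-346), 100 nM CREBtide and 1 mM ATP, run 60 minutes at room temperature, pH 7.5.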
A general note: TR-FRET usually uses a lanthanide donor and a delayed reading to cut background.
Regarding `C[C@H]1c2cc(Oc3ccnc4[nH]ccc34)ccc2CCN1C(=O)Nc1ccc(CN2CCN(C)CC2)c(C(F)(F)F)c1` [V-2], the IC50 was < 500 nM.

Consider `CCN1CCN(Cc2ccc(NC(=O)N3CCc4ccc(Oc5ccnc6[nH]ccc56)cc4[C@@H]3C)cc2Cl)CC1` [V-3], for which the IC50 is < 500 nM. The value for `CCN1CCN(Cc2ccc(NC(=O)N3CCc4ccc(Oc5ccnc6[nH]ccc56)cc4[C@@H]3C)cc2C(F)F)CC1` [V-4] was < 500 nM; that for `CCN1CCN(Cc2ccc(NC(=O)N3CCc4ccc(Oc5ccnc6[nH]ncc56)cc4[C@@H]3C)cc2C(F)(F)F)CC1` [V-5] was < 500 nM; that for `CCN1CCN(Cc2ccc(NC(=O)N3CCc4ccc(Oc5ccnn6cccc56)cc4[C@@H]3C)cc2C(F)(F)F)CC1` [V-6] was < 500 nM. On to `CCN1CCN(Cc2ccc(NC(=O)N3CCc4ccc(Oc5ccnn6cc(-c7cnn(C)c7)cc56)cc4[C@@H]3C)cc2C(F)(F)F)CC1` [V-7], for which the IC50 is < 500 nM.

For `CCN1CCN(Cc2ccc(NC(=O)N3CCc4ccc(Oc5ccnn6cc(C#N)cc56)cc4[C@@H]3C)cc2C(F)(F)F)CC1` [V-8], the 50% inhibitory concentration (IC50) is < 500 nM. `CCN1CCN(Cc2ccc(NC(=O)N3CCc4ccc(Oc5ncnn6cc(C#N)cc56)cc4[C@@H]3C)cc2C(F)(F)F)CC1` [V-9]: the IC50 is < 500 nM. For `CCN1CCN(Cc2ccc(NC(=O)N3CCc4ccc(Oc5ccnc6[nH]c(C#N)cc56)cc4[C@@H]3C)cc2C(F)(F)F)CC1` [V-10] the value was < 500 nM; for `CCN1CCN(Cc2ccc(NC(=O)N3CCc4ccc(Oc5ccnc(C#N)c5)cc4[C@@H]3C)cc2C(F)(F)F)CC1` [V-11], 500 to 5000 nM; for `CCN1CCN(Cc2ccc(NC(=O)N3CCc4ccc(Oc5ccnc(C(N)=O)c5)cc4[C@@H]3C)cc2C(F)(F)F)CC1` [V-12], 500 to 5000 nM.

Regarding `CCN1CCN(Cc2ccc(NC(=O)N3CCc4ccc(Oc5ccnc(C(=O)NC)c5)cc4[C@@H]3C)cc2C(F)(F)F)CC1` [V-13], the IC50 is < 500 nM. With `C[C@H]1c2cc(Oc3ccnc4[nH]ccc34)ccc2CCN1C(=O)Nc1ccc(OC2CCNCC2)c(C(F)F)c1` [V-14], the IC50 fell in the range of 500 to 5000 nM. Turning to `C[C@H]1c2cc(Oc3ccnc4[nH]ccc34)ccc2CCN1C(=O)Nc1ccc(OC2CCN(C)CC2)c(C(F)F)c1` [V-15], the 50% inhibitory concentration (IC50) lay within 500 to 5000 nM.

In turn, `CCN1CCC(Oc2ccc(NC(=O)N3CCc4ccc(Oc5ccnc6[nH]ccc56)cc4[C@@H]3C)cc2C(F)F)CC1` [V-16] came in with a 50% inhibitory concentration (IC50) of 500 to 5000 nM.

On to `C[C@H]1c2cc(Oc3ccnc4[nH]ccc34)ccc2CCN1C(=O)Nc1ccc(OC2CCN(CCO)CC2)c(C(F)(F)F)c1` [V-17], for which the half-inhibitory concentration (IC50) was < 500 nM.

Take `C[C@H]1c2cc(Oc3ccnc4[nH]ccc34)ccc2CCN1C(=O)Nc1ccc(CN2CCN(CCO)CC2)c(C(F)F)c1` [V-18]: the IC50 was < 500 nM. The value for `C[C@H]1c2cc(Oc3ccnc4[nH]ccc34)ccc2CCN1C(=O)Nc1ccc(CN2CCN(CCO)CC2)c(C(F)(F)F)c1` [V-19] was < 500 nM; that for `CCN1CCN(Cc2ccc(NC(=O)N3CCc4ccc(Oc5ccnc6[nH]ccc56)cc4[C@@H]3C)cc2C(F)(F)F)C(=O)C1` [V-20] was 500 to 5000 nM. For `C[C@H]1c2cc(Oc3ccnc4[nH]ccc34)ccc2CCN1C(=O)Nc1ccc(CN2CCN(C3COC3)CC2)c(C(F)(F)F)c1` [V-21], the IC50 is 500 to 5000 nM. For `CCc1cc2c(Oc3ccc4c(c3)[C@H](C)N(C(=O)Nc3ccc(CN5CCN(CC)CC5)c(C(F)(F)F)c3)CC4)ccnc2[nH]1` [V-22] the value was < 500 nM; for `CCN1CCN(Cc2ccc(NC(=O)N3CCc4ccc(Oc5ccnc6[nH]c(C7(O)COC7)cc56)cc4[C@@H]3C)cc2C(F)(F)F)CC1` [V-23], < 500 nM. With `CCN1CCN(Cc2ccc(NC(=O)N3CCc4ccc(Oc5ccnc6[nH]c(CCO)cc56)cc4[C@@H]3C)cc2C(F)(F)F)CC1` [V-24], the IC50 was < 500 nM. Regarding `CCN1CCN(Cc2ccc(NC(=O)N3CCc4ccc(Oc5ccnc6[nH]c(CCOC)cc56)cc4[C@@H]3C)cc2C(F)(F)F)CC1` [V-25], the 50% inhibitory concentration (IC50) is < 500 nM.

On to `CCN1CCN(Cc2ccc(NC(=O)N3CCc4ccc(Oc5ccnc6[nH]c(C7CC7)cc56)cc4[C@@H]3C)cc2C(F)(F)F)CC1` [V-26], for which the IC50 is < 500 nM. As for `CCN1CCN(Cc2ccc(NC(=O)N3CCc4ccc(Oc5ccnc6[nH]c(-c7cnn(C)c7)cc56)cc4[C@@H]3C)cc2C(F)(F)F)CC1` [V-27], the IC50 is < 500 nM. For the compound `CCN1CCN(Cc2ccc(NC(=O)N3CCc4ccc(Oc5ncnc6[nH]c(C)cc56)cc4[C@@H]3C)cc2C(F)(F)F)CC1` [V-28], the IC50 was < 500 nM. The value for `CCN1CCN(Cc2ccc(NC(=O)N3CCc4ccc(Oc5ccnc6[nH]c(C)cc56)cc4[C@@H]3C)cc2C(F)(F)F)CC1` [V-29] was < 500 nM; that for `Cc1cc2c(Oc3ccc4c(c3)[C@H](C)N(C(=O)Nc3cnc(OC5CCNCC5)c(C(F)(F)F)c3)CC4)ccnc2[nH]1` [VI-1] was < 500 nM.

`Cc1cc2c(Oc3ccc4c(c3)[C@H](C)N(C(=O)Nc3cnc(OC5CCN(C)CC5)c(C(F)(F)F)c3)CC4)ccnc2[nH]1` [VI-2]: the concentration for half-maximal inhibition (IC50) is < 500 nM. The value for `CCN1CCC(Oc2ncc(NC(=O)N3CCc4ccc(Oc5ccnc6[nH]c(C)cc56)cc4[C@@H]3C)cc2C(F)(F)F)CC1` [VI-3] was < 500 nM.

Turning to `Cc1cc2c(Oc3ccc4c(c3)[C@H](C)N(C(=O)Nc3cnc(NC5CCN(C)CC5)c(C(F)(F)F)c3)CC4)ccnc2[nH]1` [VI-7], the IC50 was < 500 nM. The value for `Cc1cc2c(Oc3ccc4c(c3)[C@H](C)N(C(=O)Nc3cnc(OC5CN(C)C5)c(C(F)(F)F)c3)CC4)ccnc2[nH]1` [VI-12] was 500 to 5000 nM; that for `Cc1cc2c(Oc3ccc4c(c3)[C@H](C)N(C(=O)Nc3cnc(Oc5ccncc5)c(C(F)(F)F)c3)CC4)ccnc2[nH]1` [VI-14] was 5000 to 10000 nM; that for `Cc1cc2c(Oc3ccc4c(c3)[C@H](C)N(C(=O)Nc3cnc(OCCN(C)C)c(C(F)(F)F)c3)CC4)ccnc2[nH]1` [VI-15] was 500 to 5000 nM. The value for `Cc1cc2c(Oc3ccc4c(c3)[C@H](C)N(C(=O)Nc3cnc(OCCCN(C)C)c(C(F)(F)F)c3)CC4)ccnc2[nH]1` [VI-16] was 500 to 5000 nM; that for `Cc1cc2c(Oc3ccc4c(c3)[C@H](C)N(C(=O)Nc3cnc(OCCn5ccnc5)c(C(F)(F)F)c3)CC4)ccnc2[nH]1` [VI-17] was 500 to 5000 nM; that for `Cc1cc2c(Oc3ccc4c(c3)[C@H](C)N(C(=O)Nc3cnc(OC5CCN(CCO)CC5)c(C(F)(F)F)c3)CC4)ccnc2[nH]1` [VI-18] was < 500 nM. For the compound `CCN1CCN(Cc2ccc(NC(=O)N3CCc4ncc(Oc5ccnc6[nH]ccc56)cc4C3)cc2C(F)(F)F)CC1` [VII-1], the IC50 was < 500 nM. As for `CCN1CCN(Cc2ccc(NC(=O)N3CCc4ncc(Oc5ncnc6[nH]ccc56)cc4C3)cc2C(F)(F)F)CC1` [VII-2], the 50% inhibitory concentration (IC50) lay within 500 to 5000 nM.

As for `CCN1CCN(Cc2ccc(NC(=O)N3Cc4cc(Oc5ccnc6[nH]c(C)cc56)cnc4C(C)C3)cc2C(F)(F)F)CC1` (centres unmarked) [VII-3], the half-inhibitory concentration (IC50) is < 500 nM.

For `Cc1cc2c(Oc3cnc4c(c3)CN(C(=O)Nc3cnc(OC5CCN(C)CC5)c(C(F)(F)F)c3)CC4C)ccnc2[nH]1` (centres unmarked) [VII-6], the 50% inhibitory concentration (IC50) is < 500 nM. In turn, `CC1CN(C(=O)Nc2cnc(OC3CCN(C)CC3)c(C(F)(F)F)c2)Cc2cc(Oc3ccnc4[nH]ncc34)cnc21` (centres unmarked) [VII-9] registered an IC50 of 500 to 5000 nM. The value for `CC1CN(C(=O)Nc2cnc(OC3CCN(C)CC3)c(C(F)(F)F)c2)Cc2cc(Oc3ccnc4[nH]ncc34)cnc21` (centres unmarked) [VII-10] was < 500 nM; that for `CC1CN(C(=O)Nc2cnc(OC3CCN(C)CC3)c(C(F)(F)F)c2)Cc2cc(Oc3ccnc4[nH]ncc34)cnc21` (centres unmarked) [VII-11] was 500 to 5000 nM; that for `Cc1cc2c(Oc3cnc4c(c3)CN(C(=O)Nc3cnc(OC5CCN(C)CC5)c(C(F)(F)F)c3)CC4C)ncnc2[nH]1` (centres unmarked) [VII-12] was < 500 nM. With `Cc1cc2c(Oc3cnc4c(c3)CN(C(=O)Nc3cnc(OC5CCN(C)CC5)c(C(F)(F)F)c3)CC4C)ncnc2[nH]1` (centres unmarked) [VII-13], the IC50 is < 500 nM. `Cc1cc2c(Oc3cnc4c(c3)CN(C(=O)Nc3cnc(OC5CCN(C)CC5)c(C(F)(F)F)c3)CC4C)ncnc2[nH]1` (centres unmarked) [VII-14]: the IC50 was < 500 nM.

On to `CCN1CCN(Cc2ccc(NC(=O)N3Cc4cc(Oc5ccnc6[nH]ncc56)cnc4C(C)C3)cc2C(F)(F)F)CC1` (centres unmarked) [VII-15], for which the IC50 is < 500 nM.

Take `CCN1CCN(Cc2ccc(NC(=O)N3Cc4cc(Oc5ccnc6[nH]ncc56)cnc4C(C)C3)cc2C(F)(F)F)CC1` (centres unmarked) [VII-16]: the half-maximal inhibitory concentration (IC50) was < 500 nM. Regarding `CCN1CCN(Cc2ccc(NC(=O)N3Cc4cc(Oc5ccnc6[nH]ncc56)cnc4C(C)C3)cc2C(F)(F)F)CC1` (centres unmarked) [VII-17], the half-inhibitory concentration (IC50) was < 500 nM. Regarding `CCN1CCN(Cc2ccc(NC(=O)N3Cc4cc(Oc5ncnc6[nH]c(C)cc56)cnc4C(C)C3)cc2C(F)(F)F)CC1` (centres unmarked) [VII-18], the IC50 is < 500 nM.

For the compound `Cc1cc2c(Oc3cnc4c(c3)CN(C(=O)Nc3cnc(OC5CCN(C)CC5O)c(C(F)(F)F)c3)CC4C)ccnc2[nH]1` (centres unmarked) [VII-19], the IC50 was < 500 nM. Regarding `CCN1CCN(Cc2ccc(NC(=O)N3CCc4ncc(Oc5ccnc6[nH]c(C)cc56)cc4C3C)cc2C(F)(F)F)CC1` (centres unmarked) [VIII-1], the IC50 fell in the range of 500 to 5000 nM. For `CCN1CCN(Cc2ccc(NC(=O)N3CCc4ncc(Oc5ccnc6[nH]ncc56)cc4C3C)cc2C(F)(F)F)CC1` (centres unmarked) [VIII-3] the value was 500 to 5000 nM; for `CCN1CCN(Cc2ccc(NC(=O)N3CCc4ncc(Oc5ncnc6[nH]c(C)cc56)cc4C3C)cc2C(F)(F)F)CC1` (centres unmarked) [VIII-6], 500 to 5000 nM.
